Consider four compounds from patent publication US20250351829A1, “HERBICIDAL COMBINATIONS AND A METHOD FOR CONTROLLING UNDESIRED VEGETATION” (UPL Mauritius Limited, priority 2022, published 2025).

The subject of this test is Bidens pilosa. Put plainly: Post-emergence herbicidal activity, weed control efficacy trials. The format is in vivo. To be noted: 7 DAA. The procedure:
Methodology: Trials were conducted to evaluate the efficacy of the combinations comprising L-glufosinate ammonium and additional herbicides on Bidens pilosa weed.
The soil used was sandy clay loam-sand: 68.0%; silt: 8.0%; clay: 24.0%.
All treatments were in 3 replications per treatment with a spray volume of about 150 L/ha.
Efficacy Evaluation: The expected efficacy of the combination comprising L-glufosinate ammonium and additional herbicides was calculated using the well-established Colby method.
In the Colby method, the expected (or predicted) response of a combination of herbicides is calculated by taking the product of the observed response for each individual component of the combination when applied alone, divided by 100, and subtracting this value from the sum of the observed response for each component when applied alone. An unexpected enhancement in efficacy of the combination is then determined by comparing the observed response of the combination to the expected (or predicted) response as calculated from the observed response of each individual component alone. If the observed response of the combination is greater than the expected (or predicted) response, or stated conversely, if the difference between the observed and expected response is greater than zero, then the combination is said to be synergistic or unexpectedly effective (Colby, S. R., Weeds, 1967(15), p. 20-22). The Colby method requires only a single dose of each herbicide applied alone and the mixture of both doses. The formula used to calculate the expected efficacy (EE) which was compared with the observed efficacy (OE) to determine the efficacy of the present disclosure is explained hereinbelow: […]

Regarding `Cc1ccc2c(c1)[C@H](Nc1nc(N)nc(C(C)F)n1)[C@@H](C)C2` (stereo partly drawn) [Indaziflam], the “Observed efficacy (%) of Indaziflam (50 g a.i./ha)” value (50 g a.i./ha) is recorded as 90%. Turning to `CP(=O)(O)CC[C@H](N)C(=O)O.N` [L-glufosinate ammonium], the “Observed efficacy (%) of L-glufosinate ammonium (150 g a.i./ha)” value was found to be 95% (Example 1), 95% (Example 2) and 95% (Example 3). For the compound `CCc1cccc(C)c1N(COC(C)C)C(=O)CCl` [Propisochlor], the “Observed efficacy (%) of Propisochlor (540 g a.i./ha)” value (540 g a.i./ha) worked out at 5%. On to `Cn1nc(C(F)(F)F)c(CS(=O)(=O)C2=NOC(C)(C)C2)c1OC(F)F` [pyroxasulfone, Pyroxasulfone], for which the “Observed efficacy (%) of pyroxasulfone (75 g a.i./ha)” value (75 g a.i./ha) amounted to 5%.
